# From patent US20260102407A1, “TREATMENT METHODS” (priority 2020, published 2026)
# Tested on: genes induced by IL-1β
# Test: RNA-seq of IL-1β-treated HMEC-1
# Assay type: cell-based, human
# Details: 30 μM, 20 ng/ml IL-1β 4 h
# Experimental: RNA-seq. HMEC-1 were seeded into nine 100 mm petri dishes with complete MCDB131 medium containing 10% FBS. At 70-80% confluency, cells were growth-arrested with serum-free MCDB131 medium with no hydrocortisone or EGF for 44 h. Cells were pre-treated with 30 μM BT2 in the same medium for 4 h then stimulated with 20 ng/mL IL-1β for a further 4 h. Total RNA was extracted using RNeasy Mini Kit (Qiagen, Amtsgericht Dusseldorf) with modification. Briefly, cells were washed twice with pre-cooled 1×PBS and TRIzol (Thermo Fisher Sci, Waltham, MA) was added to lyze the cells. Chloroform was added to the mixture prior to centrifugation at 13000 rpm for 15 min at 4° C. Upper aqueous layer containing total RNA was transferred to fresh microtubes and isopropanol was added and loaded into RNeasy column. Columns were washed with Buffers RW1 and RPE. Total RNA was eluted from the column using RNAse-free water. Samples were submitted to The Ramaciotti Centre for Genomics (UNSW, Australia) for TruSeq Stranded mRNA-seq preparation and sequencing by One NextSeq 500 1×75 bp High Output flowcell with data output up to 400M reads. Quality control of samples was set at >80% higher than Q30 at 1×75 bp.
# RNA-seq reads were first assessed for quality using the tool FastQC (v0.11.8) (On the World-Wide-Web at: bioinformatics.babraham.ac.uk/projects/fastqc/). The tool Salmon was used for quantifying transcript abundance from RNA-seq reads (Patro, R., et al., Nat Methods 14, 417-419 (2017)). The R package DESeq2 (Love, M. I., et al., Genome Biol 15, 550 (2014)) that incorporates a method for differential analysis of count data was then used to identify differentially expressed genes across specific comparisons. The heatmap.2 function from the R package gplots v3.0.1.1 was used to generate heatmaps using counts per million (cpm) values for sets of genes of interest. The database for annotation, visualization and integrated discovery (DAVID) (Jiao, X., et al., Bioinformatics 28, 1805-1806 (2012)), a web-based online bioinformatics resource was used to identify the gene ontologies such as biological processes (BP) found to be enriched for lists of differentially expressed genes for specific comparisons.
compound,measurement,value
"CCOC(=O)Nc1ccc2c(c1)C(=O)N(CC)c1ccccc1O2 [BT2, (10-ethyl-11-oxo-10,11-dihydro-dibenzo[b,f][1,4]oxazepin-2-yl)-carbamic acid ethyl ester]",IL-1β-inducible FosB and VCAM-1 expression (RNA-seq),suppress IL-1β-inducible FosB and VCAM-1 expression
same,"expression of other regulatory genes including ICAM-1, CXCL2, KLF5, Egr-1 and Fos (RNA-seq)",inhibited a range of other regulatory genes
same,number of the 325 IL-1β-induced genes (log FC≥2) inhibited (log FC≥2),89
same,proportion of the 325 IL-1β-induced genes inhibited,27.5%
